Like-named read-outs stand apart in the source and are kept apart here.
Tests used:
Assay type in all cases: in vivo
[1] = test system: Rhipacephalus sanguineus, adult ticks; assay: Contact activity against adult ticks, coated glass vial assay
Protocol: Evaluation of the Efficacy of Test Compounds Against Adult Ticks
The contact activity of a test compound against Rhipacephalus sanguineus, adult ticks, is evaluated in a coated glass vial assay. In this evaluation, a solution of test compound in acetone is allowed to dry on the interior surface of a 20 mL vial. Five unfed adult ticks are added to the treated vial and mortality is assessed periodically for up to 48 h. All treatments are replicated 2 times. The data are averaged.

[2] = test system: newly emerged larvae of Lucilia sericata, blowfly; assay: Efficacy against blowfly larvae, treated paper/serum bioassay; conditions: blowfly larvae; for mortality at 0.2 ppm / mortality at 2 ppm / mortality at 20 ppm: Lucilia sericata
Protocol: Evaluation of Efficacy of Test Compounds Against Blowfly Larvae
The efficacy of a test compound against newly emerged larvae of Lucilia sericata, blowfly, is evaluated using a treated paper/serum bioassay. In this evaluation, a solution of test compound in acetone is applied to a filter paper disc and the disc is allowed to dry. Bovine serum and about 20 newly emerged blowfly larvae are added to the treated paper disc and the mortality is assessed at 24 h and 48 h. The data are averaged.

[3] = test system: Ctenocephatides felis, adult cat fleas; assay: Contact activity against adult cat fleas, coated glass vial assay
Protocol: Evaluation of the Efficacy of Test Compounds Against Adult Cat Fleas
The contact activity of a test compound against Ctenocephatides felis, adult cat fleas, is evaluated in a coated, glass vial assay. In this evaluation, a solution of test compound in acetone is allowed to dry on the interior surface of a 20 mL vial. Ten unfed adult cat fleas are added to the treated vial and mortality is assessed periodically for up to 48 h. All treatments are replicated 2 times. The data are averaged.

SMILES | % Mortality 4 h ([3]; Conc. 2 ug/cm2, 4 h) [%] | % Mortality 24 h ([3]; Conc. 2 ug/cm2, 24 h) [%] | % Mortality 24 h ([2]; Conc. 2.0 ppm, 24 h) [%] | % Mortality 48 h ([2]; Conc. 2.0 ppm, 48 h) [%] | % Mortality 24 h ([2]; Conc. 20.0 ppm, 24 h) [%] | % Mortality 48 h ([2]; Conc. 20.0 ppm, 48 h) [%] | other results
CC1(c2nn(-c3c(Cl)cc(C(F)(F)F)cc3Cl)c(Cl)c2C#N)CC1(Cl)Cl (stereo not shown) [Example 4, 5-Chloro-3-(2,2-dichloro-1-methylcyclopropyl)-1-[2,6-dichloro-4-(trifluoromethyl)phenyl]-1H-pyrazole-4-carbonitrile] | 100 | 100 |  |  |  |  | % Mortality 4 h ([1]; Conc. 0.78 ug/cm2, 4 h): 60%; % Mortality 24 h ([1]; Conc. 0.78 ug/cm2, 24 h): 100%; % Mortality 4 h ([1]; Conc. 7.80 ug/cm2, 4 h): 60%; % Mortality 24 h ([1]; Conc. 7.80 ug/cm2, 24 h): 100%; mortality at 0.2 ppm ([2]; Conc. 0.2 ppm, 24 h, read-out: % Mortality 24 h): 100%; mortality at 0.2 ppm ([2]; Conc. 0.2 ppm, 48 h, read-out: % Mortality 48 h): 100%; mortality at 2 ppm ([2]; Conc. 2.0 ppm, 24 h, read-out: % Mortality 24 h): 100%; mortality at 2 ppm ([2]; Conc. 2.0 ppm, 48 h, read-out: % Mortality 48 h): 100%; mortality at 20 ppm ([2]; Conc. 20.0 ppm, 24 h, read-out: % Mortality 24 h): 100%; mortality at 20 ppm ([2]; Conc. 20.0 ppm, 48 h, read-out: % Mortality 48 h): 100%; % Mortality 4 h ([3]; Conc. 0.002 ug/cm2, 4 h): 20%; % Mortality 24 h ([3]; Conc. 0.002 ug/cm2, 24 h): 100%; % Mortality 4 h ([3]; Conc. 0.2 ug/cm2, 4 h): 60%; % Mortality 24 h ([3]; Conc. 0.2 ug/cm2, 24 h): 100%
N#Cc1c(C2CC2)nn(-c2c(Cl)cc(C(F)(F)F)cc2Cl)c1Cl [Example 26] | 100 | 100 | 0 | 0 | 97 | 97 | % Mortality 24 h ([2]; Conc. 10.0 ppm, 24 h): 0%; % Mortality 48 h ([2]; Conc. 10.0 ppm, 48 h): 50%
N#Cc1c(C2CC2)nn(-c2c(Cl)cc(C(F)(F)F)cc2Cl)c1N [Example 24] |  |  |  |  |  |  | % Mortality 24 h ([2]; Conc. 10.0 ppm, 24 h): 0%; % Mortality 48 h ([2]; Conc. 10.0 ppm, 48 h): 0%
CC1(c2nn(-c3c(Cl)cc(Cl)cc3Cl)cc2C#N)CC1(Cl)Cl (stereo not shown) [Example 6] |  |  |  |  | 70 | 70 | % Mortality 24 h ([2]; Conc. 1.0 ppm, 24 h): 10%; % Mortality 48 h ([2]; Conc. 1.0 ppm, 48 h): 10%
CC1(c2nn(-c3c(Cl)cc(Cl)cc3Cl)c(N)c2C#N)CC1(Cl)Cl (stereo not shown) [Example 25] |  |  |  |  | 5 | 5 | % Mortality 24 h ([2]; Conc. 10.0 ppm, 24 h): 0%; % Mortality 48 h ([2]; Conc. 10.0 ppm, 48 h): 0%
CC1(c2nn(-c3c(Cl)cc(C(F)(F)F)cc3Cl)cc2C#N)CC1(Cl)Cl (stereo not shown) [Example 5] | 0 | 33 |  |  |  |  | 
CC1(c2nn(-c3c(Cl)cc(Cl)cc3Cl)c(Cl)c2C#N)CC1(Cl)Cl (stereo not shown) [Example 27] | 10 | 100 | 100 | 100 | 100 | 100 | % Mortality 24 h ([2]; Conc. 0.2 ppm, 24 h): 0%; % Mortality 48 h ([2]; Conc. 0.2 ppm, 48 h): 0%
CC1(c2nn(-c3c(Cl)cc(Cl)cc3Cl)c(Br)c2C#N)CC1(Cl)Cl (stereo not shown) [Example 28] | 0 | 10 | 95 | 100 | 100 | 100 | % Mortality 24 h ([2]; Conc. 0.2 ppm, 24 h): 0%; % Mortality 48 h ([2]; Conc. 0.2 ppm, 48 h): 0%
CC1(c2nn(-c3c(Cl)cc(Cl)cc3Cl)cc2C#N)CC1 [Example 11] |  |  |  |  | 0 | 0 | 
CC(C)(C)C(=O)Nc1c(C#N)c(C2(C)CC2(Cl)Cl)nn1-c1c(Cl)cc(C(F)(F)F)cc1Cl (stereo not shown) [Example 34] |  |  |  |  | 0 | 0 | 
CN(C)C=Nc1c(C#N)c(C2(C)CC2(Cl)Cl)nn1-c1c(Cl)cc(C(F)(F)F)cc1Cl (stereo not shown) [Example 38] |  |  |  |  | 0 | 0 | 
CC1(c2nn(-c3c(Cl)cc(C(F)(F)F)cc3Cl)c(NC(=O)C3CC3)c2C#N)CC1(Cl)Cl (stereo not shown) [Example 36] |  |  |  |  | 10 | 10 | % Mortality 24 h ([2]; Conc. 10.0 ppm, 24 h): 0%
CC1(c2nn(-c3c(Cl)cc(Cl)cc3Cl)cc2C#N)CC1(Br)Br (stereo not shown) [Example 15] | 10 | 80 | 95 | 95 | 90 | 90 | % Mortality 24 h ([2]; Conc. 0.2 ppm, 24 h): 0%; % Mortality 48 h ([2]; Conc. 0.2 ppm, 48 h): 0%
CCOC=Nc1c(C#N)c(C2(C)CC2(Cl)Cl)nn1-c1c(Cl)cc(C(F)(F)F)cc1Cl (racemic) [Example 40] | 0 | 100 | 0 | 0 | 100 | 100 | 
COC=Nc1c(C#N)c(C2(C)CC2(Cl)Cl)nn1-c1c(Cl)cc(C(F)(F)F)cc1Cl (stereo not shown) [Example 37] | 10 | 100 | 0 | 0 | 100 | 100 | 
COc1ccc(C2(c3nn(-c4c(Cl)cc(Cl)cc4Cl)cc3C#N)CC2)cc1 [Example 13] |  |  |  |  | 0 | 0 | 
CC1(c2nn(-c3c(Cl)cc(C(F)(F)F)cc3Cl)c([N+](=O)[O-])c2C#N)CC1(Cl)Cl (stereo not shown) [Example 30] | 0 | 100 |  |  | 20 | 20 | % Mortality 24 h ([2]; Conc. 10.0 ppm, 24 h): 10%; % Mortality 48 h ([2]; Conc. 10.0 ppm, 48 h): 50%
CCN(CC)c1c(C#N)c(C2(C)CC2(Cl)Cl)nn1-c1c(Cl)cc(C(F)(F)F)cc1Cl (stereo not shown) [Example 33] | 20 | 100 | 90 | 90 | 100 | 100 | % Mortality 24 h ([2]; Conc. 0.2 ppm, 24 h): 0%; % Mortality 48 h ([2]; Conc. 0.2 ppm, 48 h): 0%
COc1ccc(C2(c3nn(-c4c(Cl)cc(C(F)(F)F)cc4Cl)cc3C#N)CC2)cc1 [Example 9] |  |  |  |  | 0 | 0 | 
N#Cc1cn(-c2c(Cl)cc(Cl)cc2Cl)nc1C1(c2ccc(Cl)cc2Cl)CC1 [Example 18] |  |  |  |  | 0 | 0 | 
N#Cc1cn(-c2c(Cl)cc(C(F)(F)F)cc2Cl)nc1C1(c2ccc(Cl)cc2)CC1 [Example 10] |  |  |  |  | 0 | 0 | 
CC1(c2nn(-c3c(Cl)cc(C(F)(F)F)cc3Cl)c(N(C(=O)C3CC3)C(=O)C3CC3)c2C#N)CC1(Cl)Cl (stereo not shown) [Example 35] |  |  |  |  | 0 | 0 | 
CCCOC=Nc1c(C#N)c(C2(C)CC2(Cl)Cl)nn1-c1c(Cl)cc(C(F)(F)F)cc1Cl (racemic) [Example 39] | 0 | 70 | 70 | 70 | 100 | 100 | % Mortality 24 h ([2]; Conc. 0.2 ppm, 24 h): 0%; % Mortality 48 h ([2]; Conc. 0.2 ppm, 48 h): 0%
N#Cc1cn(-c2c(Cl)cc(C(F)(F)F)cc2Cl)nc1C1(c2ccc(Cl)cc2Cl)CC1 [Example 17] |  |  |  |  | 0 | 0 | 

— patent US20060154923A1, “N-phenyl-3-cyclopropylpyrazole-4-carbonitriles as ectoparasiticidal agents” (priority 2002, published 2006)
